Where two headings read alike, the source gives them in different places.
Tests used:
L1210 leukemia = test: Test 16: structure-activity of R'1 substitution, L1210 (Table XII); assay type: in vivo, mouse (C57B16xDBA/2)F1; parameters: MST: unit not given here
Description: Test 16: Relationship between structure and activity of various dipyrido indoles differing by the R'1 substitution.
L1210 leukemia has been maintained by weekly passages on (C57B16xDBA/2)F1 mice. On day 0, mice were inoculated by I.P. route with various numbers of L1210 ascitic tumor cells in volumes of 0.1 ml. Subsequently as indicated, drugs were administrated in Ca^++ and Mg^++ free PBS solutions (Gibco) or in Mac Coy's medium (Gibso or Microbiological Associates). […]

[1] = system: tumoral strain derived from the murine leukemia due to the C. FRIEND virus; test: Test 7: antitumoral activity in vitro on Friend leukemia tumoral strain; assay type: cell-based; details: HUM = 1
Description: Test 7: Study of the antitumoral activity in vitro
This activity was measured on a tumoral strain derived from the murine leukemia due to the C. FRIEND virus.
The tumoral cells multiply in suspension in a "RPMI 1640" medium (Catalogue of GIBCO Bio-cult. Ltd. Washington Road, Sandyford Industrial Estate, PAISLEY PA 3 4EP, Renfrewshire, Scotland) supplemented with 20% of embryonary calf serum, penicillin and streptomycine. The duplication time of these cells is 11 hours. The growth fraction is equal to 1 or very close to 1 (all the cells are in the cycle). The cultures are sub-culturedat time t=0 at the concentration of 2.10^5 cells per ml in Falcon dishes containing 4 ml of medium. After twenty four hours, the product to be tested was added, i.e. at a moment when the cultures are in exponential phase of growth. Twenty four hours after the addition of the product, the cells are counted and the percentage of living cells determined by an exclusion test using "trypan" blue.

[2] = Test 4: toxicity on new-born mice, IP; assay type: in vivo, mouse; details: mouse, in vivo, read-out: dead mice (converted)
Source text: (§1) Test 4: Investigation of the toxicity
(§2) The toxic dose has been sought, on adult ([…]×DBA/2) Fl mice and on new-born mice, of the compounds of the invention by injection by the IP route. The results obtained are given hereinafter:
(§3) 2-On new-born mice (IP route)

new-born mice = test: Test 4: toxicity on new-born mice, IP; assay type: in vivo, mouse
Source text: as §1, §2, §3

L 1210 leukemia = test: Test 1: antitumoral properties on L 1210 leukemia (Table I); assay type: in vivo, mouse; details: 0.1 mg/mouse (5 mg/kg), J+1
Description: The lower animal antitumoral properties of the compounds according to the invention have been determined by their curative action on inoculated test L-1210 leukemia. [ZUBROD C. G., Proc. Nat. Acad. Sci. 1972, 69, 1042-1047 and SCHEPARTZ SA. SCREENING, 1971, CANCER Chemother. Rep. Part 3 vol.2 p.3].
This leukemia is maintained in ascitic form by passage (i.p. route) on CBDl (C57 B16×DBA/2)F1 mice. The preparation to be tested are injected by the intraperitoneal route at least one day after the inoculation of the cells (one injection only). The results are expressed in increased life span per cent (ILS %) according to KESSEL et al. Cancer Res. 1971, 31, 1883-1887) or in percentage of the number of cells killed by the product (the survival of the animals is proportional to the number of cells injected).
The following tests were made in groups of 10 mice, unless stipulated to the contrary.
Test 1: Study of the antitumoral properties of the compounds of the invention on L 1210 leukemia
The lower animal antitumoral properties of the compounds according to the invention were determined by their curative action on test inoculated L 1210 leukemia.
This leukemia was maintained on CBD 1 (C 57 B 16×DBA/2) F1 mice. The compounds to be tested were injected by the IP route one or more days after the inoculation of the cells (single injection). The results obtained, shown in table I hereinafter, are expressed in percentage of increase of life span (ILS %) and in percentage of the number of cells killed by the compound to be tested, the survival of the animals being proportional to the number of cells injected.
The percentage of the like span ILS % (Cancer. Res. 1971, 31, 1883-1887) is the following ratio: [formula] S^t =survival of the treated animals S^c =survival of the control animals

[3] = system: Moloney virus / viro-induced Moloney sarcoma; test: Test 3: development of the viro-induced Moloney sarcoma; assay type: in vivo, new-born mice; details: J+1
Source text: The study of the development of the MOLONEY viro-induced sarcoma (Nat. Cancer. Inst. Monograph 22, 139-142, 1966) has also made it possible to determine that the compounds according to the invention are antiviral and antitumoral agents in lower animals.
Test 3: Study of the development of the viro-induced Moloney sarcoma
The injection of Moloney virus [C. Jasmin et al. J. Nat. Cander Inst. 1974 53 469-474] by the intramuscular i.m. route into new-born mice led after 10 days to the formation of a sarcoma. The appearance of the tumour was proportional to the dose of virus injected. The viral inoculum was constituted by a tumor homogenate diluted to 1/250, this corresponding to 10 TID 50, i.e. to the dose of virus inducing the appearance of a tumour in 50% of the animals infected. At this dose, 80 to 100% of the animals developed a tumour, and 100% of the survivors became leukemic. The experiment thus consisted in noting the number of mice presenting tumours, the regression, or not, of these tumours and finally in sacrificing the surviving animals after 2 months and in noting the presence or absence of splenomegaly (evidence of a leukemia). The virus was inoculated into new-born mice of 3 to 5 days by the IM route, and the mice received the following day (J+1) or five hours after injection (JO+5 hours) the product to be tested by the IP route.

[4] = 10^4 cells, 5 mg/kg, day +1, control MST 11.8

For Cc1c2cc[n+](C)cc2c(C)c2c1[nH]c1cc[n+](C)cc12 [Example 2, 2,5,9,11-tetramethyl dipyrido [4,3-b][3,4-f] indolinium diacetate], the 60 days surv. (L1210 leukemia; 10^4 cells, 20 mg/kg, day +4) was 0, the ILS % (L1210 leukemia; 10^4 cells, 20 mg/kg, day +4) was 0.9% and the MST (L1210 leukemia; 10^4 cells, 20 mg/kg, day +4) was 11.3. The Range of death (L1210 leukemia; 10^4 cells, 20 mg/kg, day +4) was 10-17 and the “Activity (ratio of the LD50 of HUM to the LD50 of the product tested)” value [1] was 0.2.
With Cc1c2cc[n+](C)cc2c(C)c2c1[nH]c1ccc(O)cc12 [HUM, 2N--methyl-9-hydroxy-ellipticinium acetate, reference compound] the 60 days surv. (L1210 leukemia; 10^3 cells, 5 mg/kg, day +1) was 3, the ILS % (L1210 leukemia; 10^3 cells, 5 mg/kg, day +1) was 22.15% and the MST (L1210 leukemia; 10^3 cells, 5 mg/kg, day +1) was 16.86. For the same compound, the Range of death (L1210 leukemia; 10^3 cells, 5 mg/kg, day +1) was 14-20, the ILS % (L1210 leukemia; [4]) was 22.6% and the MST (L1210 leukemia; [4]) was 14.9. The Range of death (L1210 leukemia; [4]) was 14-20, the mortality ([2]; 5 μg: 2.5 mg/kg) was 37.5% and the mortality ([2]; 10 μg: 5 mg/kg) was 37.5%. For the same compound, the appearance of mice (new-born mice; 5 μg: 2.5 mg/kg) was “mice puny in appearance”, the appearance of mice (new-born mice; 10 μg: 5 mg/kg) was “mice puny in appearance” and the ILS % (L 1210 leukemia; 10^3 cells) was 22.15%. For the same compound, the “Number of cells found” value (L 1210 leukemia; 10^3 cells) was 60, the “Number of cells killed” value (L 1210 leukemia; 10^3 cells) was 94% and the Surviving mice (L 1210 leukemia; 10^3 cells) was 3/10. For the same compound, the ILS % (L 1210 leukemia; 10^4 cells, IP) was 22.6%, the “Number of cells found” value (L 1210 leukemia; 10^4 cells) was 400 and the “Number of cells killed” value (L 1210 leukemia; 10^4 cells) was 96%. The Surviving mice (L 1210 leukemia; 10^4 cells) was 1/10, the animals survived ([3]; 1 μg/mouse (0.5 mg/kg)) was 90% and the mice presenting tumours ([3]; 1 μg/mouse (0.5 mg/kg)) was 30%. For the same compound, the mice with leukemia ([3]; 1 μg/mouse (0.5 mg/kg)) was 33%, the tumours regressed ([3]; 1 μg/mouse (0.5 mg/kg)) was 90% and the “animals presenting a tumour” value ([3]; 5 μg/mouse (2.5 mg/kg)) was 20%. It also gave a mice leukemic ([3]; 5 μg/mouse (2.5 mg/kg)) of 10% and a tumour regression ([3]; 5 μg/mouse (2.5 mg/kg)) of 100%.

From patent US4444776A, “Dipyrido (4,3-B) (3,4-F) indoles, process for obtaining them, therapeutical use and pharmaceutical compositions” (priority 1977, dated 1984)
